Data set [1] can be described thus: collision cross section (N2, base ion); higher = larger ion cross section. On the procedure:
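Standards of hydrophobic organic contaminants were analysed by GC-APCI (positive mode, dry or wet source conditions) coupled to cyclic ion mobility-QTOF MS. CCS was measured for the base ion (sometimes a fragment ion) in N2 drift gas (one-pass mode, calibrated with a Waters 22-compound mix).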

A short description of data set [2]: GC retention time (DB-5MS, GC-APCI); higher = later elution. On the procedure: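 Standards of hydrophobic organic contaminants were analysed by GC-APCI (positive mode, dry or wet source conditions) coupled to cyclic ion mobility-QTOF MS. CCS was measured for the base ion (sometimes a fragment ion) in N2 drift gas (one-pass mode, calibrated with a Waters 22-compound mix). 5 mL/min).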

Compound `Clc1ccc(Cl)c(Cl)c1Cl` [1,2,3,4-Tetrachlorobenzene] (APCI source condition: Dry, base ion: M+.) registered a collision cross section in data set [1] of 135.67 Å². The GC retention time in data set [2] came out at 9.99 min.

Compound `Brc1cc(Br)c(OCCOc2c(Br)cc(Br)cc2Br)c(Br)c1` [1,2-Bis(2,4,6-tribromophenoxy)ethane] (APCI source condition: Dry, base ion: M+.) yielded a collision cross section in data set [1] of 186.57 Å². In data set [2], this compound showed a GC retention time of 29 min. As for `C=CCOc1c(Br)cc(Br)cc1Br` [1,3,5-Tribromo-2-prop-2-enoxybenzene] (APCI source condition: Dry, base ion: [M-Br]+), in data set [1], the collision cross section turned out to be 136.27 Å². Further, the GC retention time in data set [2] was found to be 15.2 min.

In turn, `CCCCCCCCCCCCCCCCC(F)(F)C(F)(F)C(F)(F)C(F)(F)C(F)(F)C(F)(F)C(F)(F)C(F)(F)C(F)(F)C(F)(F)F` [1-(Henicosafluorodecyl)hexadecane] (APCI source condition: Dry, base ion: [M-H]+) displayed a collision cross section in data set [1] of 241.65 Å². The compound also showed a GC retention time in data set [2] of 17.6 min.

As for `CCCCCCCCCCCCCCCCC(F)(F)C(F)(F)C(F)(F)C(F)(F)C(F)(F)C(F)(F)C(F)(F)C(F)(F)F` [1-(Perfluoro-n-octyl)hexadecane] (APCI source condition: Dry, base ion: [M-H]+), the collision cross section in data set [1] is reported as 226.94 Å². In data set [2], the GC retention time was determined as 16.8 min. For `CCCCCCCCCCCCCCC=CC(F)(F)C(F)(F)C(F)(F)C(F)(F)C(F)(F)C(F)(F)C(F)(F)C(F)(F)C(F)(F)C(F)(F)C(F)(F)C(F)(F)F` [1-(Perfluorododecyl)-hexadec-1-ene] (APCI source condition: Dry, base ion: [M-H]+), the collision cross section in data set [1] is on record as 255.25 Å². The compound further registered a GC retention time in data set [2] of 18 min. For `CCCCCCCCCCCCCCCCC(F)(F)C(F)(F)C(F)(F)C(F)(F)C(F)(F)C(F)(F)C(F)(F)C(F)(F)C(F)(F)C(F)(F)C(F)(F)C(F)(F)F` [1-(Perfluorododecyl)hexadecane] (APCI source condition: Dry, base ion: [M-H]+), in that order: 256.66 Å² and 18.4 min. The compound `CCCCCCCCCCCCCCC(F)(F)C(F)(F)C(F)(F)C(F)(F)C(F)(F)C(F)(F)C(F)(F)C(F)(F)C(F)(F)C(F)(F)C(F)(F)C(F)(F)F` [1-(Perfluorododecyl)tetradecane] (APCI source condition: Dry, base ion: [M-H]+) returned a collision cross section in data set [1] of 250.16 Å². Also, the GC retention time in data set [2] amounted to 16.7 min.

For the compound `Clc1ccc(C(c2ccccc2Cl)C(Cl)Cl)cc1` (configuration not stated) [2,4'-DDD] (APCI source condition: Dry, base ion: [M-CHCl2]+), the collision cross section in data set [1] is reported as 140.45 Å². Further, in data set [2], the GC retention time was 19.4 min. On the same counts, the results for `ClC(Cl)=C(c1ccc(Cl)cc1)c1ccccc1Cl` [2,4'-DDE] (APCI source condition: Dry, base ion: M+.) are 154.54 Å² and 18.7 min.

In data set [1], `Clc1ccc(C(c2ccccc2Cl)C(Cl)(Cl)Cl)cc1` (configuration not stated) [2,4'-DDT] (APCI source condition: Dry, base ion: [M-CCl3]+) registered a collision cross section of 140.36 Å². Further, the GC retention time in data set [2] came out at 20.2 min.

For `C=C(Br)COc1c(Br)cc(Br)cc1Br` [2-Bromoallyl 2,4,6-tribromophenyl ether] (APCI source condition: Dry, base ion: [M-Br]+), the collision cross section in data set [1] was found to be 143.35 Å². The compound further yielded a GC retention time in data set [2] of 18.2 min. For `CCCCC(CC)COP(=O)(Oc1ccccc1)Oc1ccccc1` (configuration not stated) [2-Ethylhexyl diphenyl phosphate] (APCI source condition: Wet, base ion: [M-C8H15]+), in that order: 149.25 Å² and 21.3 min. Take `Clc1c(Cl)c(Cl)c(-c2c(Cl)c(Cl)c(Cl)c(Cl)c2Cl)c(Cl)c1Cl` [PCB 209] (APCI source condition: Dry, base ion: M+.): the collision cross section in data set [1] was 179.93 Å².

The values above are taken from the supplement of paper PMC11923942.
